Values quoted from earlier work as cited in US7446098B2, “Combination therapy for treating protein deficiencies” (Mount Sinai School of Medicine of New York University, priority 2003, dated 2008).
Residue numbers refer to the chain shown, from its start.

Key:
[1] = target: T1, wild-type α-Gal A (Homo sapiens, UniProt P06280); details: transfected COS-7 cells; cited from earlier work
T1 construct: expressed in transfected cells; host or cells: COS-7
T1 sequence (P06280 32-429): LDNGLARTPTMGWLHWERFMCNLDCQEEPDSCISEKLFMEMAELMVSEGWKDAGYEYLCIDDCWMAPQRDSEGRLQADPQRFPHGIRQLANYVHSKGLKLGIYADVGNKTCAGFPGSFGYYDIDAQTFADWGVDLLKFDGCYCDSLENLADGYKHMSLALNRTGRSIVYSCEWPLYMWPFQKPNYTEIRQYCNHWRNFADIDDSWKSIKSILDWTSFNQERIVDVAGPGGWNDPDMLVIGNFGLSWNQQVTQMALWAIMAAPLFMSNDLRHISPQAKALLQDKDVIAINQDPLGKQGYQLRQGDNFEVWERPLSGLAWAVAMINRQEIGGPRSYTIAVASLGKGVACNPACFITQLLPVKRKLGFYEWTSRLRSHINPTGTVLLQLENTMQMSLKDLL

[2] = target: T2, mutant α-Gal A (R301Q) (Homo sapiens, UniProt P06280, R301Q); details: neutral pH; cited from earlier work
T2 sequence (P06280 32-429 R301Q): T1 sequence (P06280 32-429) with R270Q

[3] = target: T3, mutant (R301Q) α-Gal A (Homo sapiens, UniProt P06280, R301Q); details: oral administration; transgenic mice overexpressing mutant (R301Q) α-Gal A; cited from earlier work
T3 construct: expressed in transfected cells; host or cells: transgenic mice (major organs)
T3 sequence (P06280 32-429 R301Q): T1 sequence (P06280 32-429) with R270Q

[4] = tested on: mutant α-Gal A (R301Q or Q279E); details: lymphoblasts from Fabry patients with R301Q or Q279E mutations; cited from earlier work

OC[C@H]1NC[C@H](O)[C@@H](O)[C@H]1O [DGJ, 1-deoxygalactonojirimycin]
activity of wild-type α-Gal A [1]: able to increase
amount of wild-type α-Gal A [1]: able to increase
in vitro stability of mutant α-Gal A (R301Q) [2]: effectively increased
enzyme activity in major organs [3]: substantially elevated
mutant enzyme activity in lymphoblasts [4]: enhanced
